From article PMC9350523 (Dose-Response, 2022)
Values belong to the molecule of their own block, whether it stands above or below them. Ends that are not written are not given here.

Legend:
BRAF = conditions: cited from earlier work
[1] = system: glutamine synthetase 2 (GS2); conditions: cited from earlier work
human PCNA = human PCNA (Homo sapiens, UniProt P12004); experiment: Fluorescence anisotropy competition: displacement of 50 nM PL peptide from PCNA; format: binding; conditions: for f (hormesis parameter): f not different from 0 (95% confidence interval), no significant hormesis
[2] = GS2 from chloroplasts of Lotus corniculatus
[3] = UNG2(a.a.1-19) competitor, .25 μM PCNA, hormetic curve

Sequence of human PCNA (P12004 whole entry): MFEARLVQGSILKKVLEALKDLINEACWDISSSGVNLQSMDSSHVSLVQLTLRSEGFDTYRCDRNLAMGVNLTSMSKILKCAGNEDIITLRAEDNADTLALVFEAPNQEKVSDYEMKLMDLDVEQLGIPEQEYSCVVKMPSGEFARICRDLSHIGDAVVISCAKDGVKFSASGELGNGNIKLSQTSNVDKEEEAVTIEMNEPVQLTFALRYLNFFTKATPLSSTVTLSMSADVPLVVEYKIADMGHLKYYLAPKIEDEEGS

Molecule: CC(C)(C)c1nc(-c2cccc(NS(=O)(=O)c3c(F)cccc3F)c2F)c(-c2ccnc(N)n2)s1 [dabrafenib]
mode of inhibition (BRAF): competitive with ATP

Molecule: CS(=N)(=O)CC[C@H](N)C(=O)O (stereo partly shown) [methionine sulfoximine]
mode of inhibition ([1]; GS2): competitive with glutamate and a somewhat irreversible inhibitor
GS2 activity at high methionine sulfoximine doses [1, 2]: completely inhibit the enzyme
GS2 activity at low methionine sulfoximine concentrations [1, 2]: allosteric stimulatory effect on other subunits of the octamer

b (slope parameter) (human PCNA; UNG2(a.a.1-19) competitor, 1 μM PCNA, 50 nM PL peptide, hormetic curve): 1.497
b (slope parameter) (human PCNA; UNG2(a.a.1-19) competitor, 1 μM PCNA, 50 nM PL peptide, standard curve): 1.143
f (hormesis parameter) (human PCNA; UNG2(a.a.1-19) competitor, 1 μM PCNA, hormetic curve): .0044^ c
b (slope parameter) (human PCNA; UNG2(a.a.1-19) competitor, .25 μM PCNA, 50 nM PL peptide, hormetic curve): 2.798
b (slope parameter) (human PCNA; UNG2(a.a.1-19) competitor, .25 μM PCNA, 50 nM PL peptide, standard curve): 3.423
c (lower asymptote) (human PCNA; [3]): .0572
f (hormesis parameter) (human PCNA; [3]): .0013^ c
Molecule: MIGQKTLYSFFSPSPARKR [UNG2(a.a.1-19)]
displacement / hormetic response (human PCNA; UNG2(a.a.1-19), .25 and 1 μM PCNA, 50 nM PL peptide): displaced PL peptide from PCNA without a hormetic response
control: PL peptide anisotropy in the absence of PCNA (human PCNA; competitor included in the cuvette without PCNA): the fluorescence anisotropy of PL peptide was unchanged
